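Briefly, cells in 96-well plates were exposed to five compound concentrations for 48 h, and endpoints were estimated by linear interpolation. GI50 marks 50% less growth.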 Calls of active or inactive are those of the source. No stated cut-off is given here; in the data, active = GI50 up to about 1.1 µM and inactive = higher.

Among the test systems are OVCAR-3; HCT-15; LOX IMVI; HOP-92; SF-539; HL-60; UO-31; SK-MEL-5; NCI-H460; SK-MEL-2; OVCAR-5; TK-10; NCI-H226; ACHN; A549; UACC-257; OVCAR-4; SK-OV-3; M14; CAKI-1.
What all share (assay): DTP human tumour cell line panel, 48 h

A word on the GI50: it is the concentration that inhibits growth by half. On to `O=[N+]([O-])c1ccc(S(=O)(=O)N=Ic2ccccc2)cc1`, for which the GI50 in the assay on OVCAR-3 is > 100 µM (inactive); in the assay on HCT-15 it was more than 100 µM; with LOX IMVI it was > 100 µM (inactive); in the assay with HOP-92, > 100 µM (inactive); with SF-539, > 100 µM (inactive); in the assay on HL-60, > 100 µM (inactive). Further, the GI50 with UO-31, in the assay with SK-MEL-5, in the assay with NCI-H460, with SK-MEL-2, in the assay on OVCAR-5 and in the assay with TK-10 was > 100 µM (inactive) throughout. In addition, the GI50 in the assay with NCI-H226, in the assay on ACHN, in the assay on A549, in the assay with UACC-257, in the assay with OVCAR-4 and with SK-OV-3 was > 100 µM (inactive) each time. The GI50 in the assay on M14 and in the assay on CAKI-1 was > 100 µM (inactive) in each case.

As for `O=C1C(=O)N(C2CCCCC2)C(=S)N1C1CCCCC1`, the GI50 is more than 100 µM in the assay with HCT-15; > 100 µM (inactive) in the assay with LOX IMVI; > 100 µM (inactive) in the assay with HOP-92; > 100 µM (inactive) in the assay on SF-539; > 100 µM (inactive) in the assay on HL-60; > 100 µM (inactive) in the assay on UO-31. Moreover, the GI50 in the assay with SK-MEL-5, with NCI-H460, in the assay with SK-MEL-2, in the assay with OVCAR-5, in the assay with TK-10 and in the assay with NCI-H226 was > 100 µM (inactive) in each case. Also, the GI50 in the assay with ACHN, with A549, with UACC-257, with OVCAR-4, in the assay on SK-OV-3 and in the assay on CAKI-1 was > 100 µM (inactive) in each case.

In the case of `CCOC(=O)C(=O)Nc1c(CC)cccc1C(C)CC` (stereo not drawn), the GI50 is > 100 µM (inactive) in the assay with OVCAR-3; more than 100 µM with HCT-15; > 100 µM (inactive) with LOX IMVI; > 100 µM (inactive) in the assay on HOP-92; > 100 µM (inactive) with SF-539; > 100 µM (inactive) with HL-60. The GI50 with UO-31, in the assay on SK-MEL-5, in the assay with NCI-H460, in the assay on SK-MEL-2, in the assay on OVCAR-5 and in the assay on TK-10 was > 100 µM (inactive) throughout. Further, the GI50 in the assay on NCI-H226, in the assay with ACHN, in the assay with A549, in the assay with UACC-257, in the assay with OVCAR-4 and with SK-OV-3 was > 100 µM (inactive) each time. Further, the GI50 in the assay on M14 and in the assay on CAKI-1 was > 100 µM (inactive) throughout.

As to `O=C(O)/C=N\N=c1[nH]c2ccccc2[nH]1`, the GI50 is > 100 µM (inactive) in the assay on OVCAR-3; more than 100 µM in the assay on HCT-15; > 100 µM (inactive) in the assay with LOX IMVI; > 100 µM (inactive) in the assay on HOP-92; > 100 µM (inactive) in the assay on SF-539; > 100 µM (inactive) in the assay with HL-60. Besides, the GI50 in the assay on UO-31, with SK-MEL-5, in the assay with NCI-H460, with SK-MEL-2, with OVCAR-5 and in the assay with TK-10 was > 100 µM (inactive) throughout. The GI50 with NCI-H226, with ACHN, in the assay on A549, with UACC-257, with OVCAR-4 and with SK-OV-3 was > 100 µM (inactive) in each case. Further, the GI50 in the assay on M14 and in the assay on CAKI-1 was > 100 µM (inactive) throughout.

As to `O=[N+]([O-])c1ccc(S[C@@H]2[C@H]3c4c(-c5ccccc5)[nH]c(-c5ccccc5)c4[C@@H]2C[C@H]3Cl)cc1`, the GI50 was 3.33 µM (inactive) in the assay with OVCAR-3; 2.39 µM in the assay on HCT-15; 3.1 µM (inactive) in the assay on LOX IMVI; 0.895 µM (active) with HOP-92; 6.75 µM (inactive) in the assay with SF-539; 3.17 µM (inactive) in the assay with HL-60. In addition, the GI50 is 1.62 µM (inactive) in the assay with UO-31; 4.66 µM (inactive) in the assay on SK-MEL-5; 2.4 µM (inactive) with NCI-H460; 11.2 µM (inactive) in the assay with SK-MEL-2; 9.95 µM (inactive) in the assay on OVCAR-5; 4.99 µM (inactive) in the assay with TK-10. Also, the GI50 in the assay on NCI-H226 was 6.71 µM (inactive); in the assay with ACHN it was 3.7 µM (inactive); in the assay with A549, 2.74 µM (inactive); in the assay with UACC-257, 14.8 µM (inactive); with OVCAR-4 it was 1.6 µM (inactive); in the assay on SK-OV-3 it was 9.98 µM (inactive). The GI50 was 3.23 µM (inactive) in the assay with M14 and 3.38 µM (inactive) with CAKI-1.

In the case of `COc1c(OC)c(OC)c2c(c1OC)c(=O)c1ccccc1n2C` [MELICOPICINE], the GI50 with OVCAR-3 was > 100 µM (inactive); with HCT-15, 72.3 µM; in the assay on LOX IMVI, > 100 µM (inactive); in the assay with HOP-92 it was > 100 µM (inactive); in the assay on SF-539, > 100 µM (inactive); in the assay with HL-60, 57.4 µM (inactive). The GI50 was > 100 µM (inactive) with UO-31; > 100 µM (inactive) in the assay with SK-MEL-5; > 10 µM (inactive) in the assay on NCI-H460; > 100 µM (inactive) in the assay on SK-MEL-2; > 100 µM (inactive) in the assay with OVCAR-5; > 100 µM (inactive) with TK-10. Further, the GI50 was > 100 µM (inactive) in the assay with NCI-H226; > 100 µM (inactive) in the assay with ACHN; > 100 µM (inactive) in the assay with A549; > 100 µM (inactive) in the assay on UACC-257; 65.6 µM (inactive) in the assay with OVCAR-4; > 100 µM (inactive) with SK-OV-3. For the same compound, the GI50 in the assay with M14 and with CAKI-1 was > 100 µM (inactive) each time.
